Measured values from ChEMBL document CHEMBL1157780, “Synthesis, chiral high performance liquid chromatographic resolution and enantiospecific activity of a potent new geranylgeranyl transferase inhibitor, 2-hydroxy-3-imidazo[1,2-a]pyridin-3-yl-2-phosphonopropionic acid” (J Med Chem, 2010).
Blank lines part the entries; values can stand above or below the molecule they belong to. Active and inactive are the calls of the source. The calls are words filed in the database; no cut-off is given here.

What was measured:
[1] = Inhibition of recombinant RGGT assessed as incorporation of [3H]GGPP into His-tagged canine rab1a after 30 mins
Rattus norvegicus = organism: Rattus norvegicus; experiment: Antiresorptive activity in Schenk growing rat model assessed as inhibition of bone resorption; assay type: functional
Osteoclast = experiment: Antiresorptive activity in rabbit osteoclasts assessed as number of actin rings after 48 hrs using TRITC-phelloidin stain relative to control; assay type: functional, cell-based; conditions: Oryctolagus cuniculus
J774 [2] = experiment: Cytotoxicity against mouse J774 cells assessed as cell viability after 48 hrs by alamar blue assay; assay type: functional, cell-based
[3] = molecular target: T1, Farnesyl pyrophosphate synthase (Homo sapiens, UniProt P14324); experiment: Inhibition of human FPPS after 10 mins using [14C]IPP as substrate by liquid scintillation counting
T1 sequence (P14324 whole entry): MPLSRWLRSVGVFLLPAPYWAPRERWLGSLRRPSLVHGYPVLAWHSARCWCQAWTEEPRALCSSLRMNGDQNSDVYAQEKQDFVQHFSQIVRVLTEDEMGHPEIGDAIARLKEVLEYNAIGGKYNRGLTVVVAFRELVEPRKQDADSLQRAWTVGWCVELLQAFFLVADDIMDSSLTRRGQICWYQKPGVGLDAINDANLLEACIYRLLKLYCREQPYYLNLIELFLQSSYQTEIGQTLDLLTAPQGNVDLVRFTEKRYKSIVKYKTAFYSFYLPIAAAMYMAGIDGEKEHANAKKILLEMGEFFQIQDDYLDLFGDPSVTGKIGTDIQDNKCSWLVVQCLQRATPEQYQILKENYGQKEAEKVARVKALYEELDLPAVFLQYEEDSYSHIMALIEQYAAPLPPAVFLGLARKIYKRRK

J774 [4] = experiment: Inhibition of RGGT-mediated Rap1A prenylation in mouse J774 cells after 24 hrs by Western blot analysis; assay type: cell-based
J774 [5] = experiment: Inhibition of RGGT-mediated Rab11 prenylation in mouse J774 cells after 24 hrs by Western blot analysis; assay type: cell-based
[6] = Inhibition of recombinant RGGT by uncompetitive inhibition based Lineweaver-Burke plot using Rab1a as substrate
[7] = Inhibition of recombinant RGGT assessed as incorporation of [3H]GGPP into His-tagged canine rab1a after 20 mins
[8] = Inhibition of GGTase1 assessed as incorporation of [3H]GGPP into His-tagged canine rab1a after 30 mins
[9] = molecular target: Protein farnesyltransferase/geranylgeranyltransferase type-1 subunit alpha (Homo sapiens) (UniProt P49354); experiment: Inhibition of GGTase1 assessed as incorporation of [3H]GGPP into His-tagged canine rab1a at 1 mM after 30 mins
[10] = molecular target: T2, Geranylgeranyl pyrophosphate synthase (Homo sapiens) (UniProt O95749); experiment: Inhibition of GGPPS at 1mM after 10 mins using [14C]IPP as substrate by liquid scintillation counting
T2 sequence (whole entry): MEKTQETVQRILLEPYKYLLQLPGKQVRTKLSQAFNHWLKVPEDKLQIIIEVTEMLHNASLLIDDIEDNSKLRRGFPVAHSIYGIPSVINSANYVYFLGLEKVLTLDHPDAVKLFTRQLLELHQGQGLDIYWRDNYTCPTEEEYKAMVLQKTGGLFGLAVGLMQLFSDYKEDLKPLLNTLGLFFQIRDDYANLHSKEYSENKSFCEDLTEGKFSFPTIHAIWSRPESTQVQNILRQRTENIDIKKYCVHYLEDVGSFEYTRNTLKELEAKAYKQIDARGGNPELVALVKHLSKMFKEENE

[11] = molecular target: T3, Farnesyl pyrophosphate synthase (Homo sapiens) (UniProt P14324); experiment: Inhibition of human FPPS at 10 uM after 10 mins using [14C]IPP as substrate
T3 sequence (whole entry): T1 sequence (P14324 whole entry)

[12] = molecular target: T4, Geranylgeranyl transferase type-2 subunit alpha (Homo sapiens) (UniProt Q92696); experiment: Inhibition of rabbit osteoclast rab11 prenylation after 24 hrs by Western blot analysis; conditions: Oryctolagus cuniculus; target entry is the homologue from another species
T4 sequence (whole entry): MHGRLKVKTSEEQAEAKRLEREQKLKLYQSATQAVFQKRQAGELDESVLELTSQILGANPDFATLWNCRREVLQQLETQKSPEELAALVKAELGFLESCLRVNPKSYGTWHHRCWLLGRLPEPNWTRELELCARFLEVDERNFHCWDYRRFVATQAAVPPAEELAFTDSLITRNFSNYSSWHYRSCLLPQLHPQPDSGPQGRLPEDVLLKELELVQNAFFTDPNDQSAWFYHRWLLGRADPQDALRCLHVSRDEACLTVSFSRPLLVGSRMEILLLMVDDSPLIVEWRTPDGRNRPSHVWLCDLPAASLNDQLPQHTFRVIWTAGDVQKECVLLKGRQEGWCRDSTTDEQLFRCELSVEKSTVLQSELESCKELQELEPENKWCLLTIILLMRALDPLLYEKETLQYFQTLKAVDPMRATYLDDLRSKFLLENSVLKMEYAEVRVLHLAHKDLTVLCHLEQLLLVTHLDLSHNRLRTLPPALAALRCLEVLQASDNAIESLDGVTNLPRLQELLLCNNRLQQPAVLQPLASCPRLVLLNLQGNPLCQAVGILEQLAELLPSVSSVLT

Structure (SMILES): O=C(O)C(O)(Cc1cnc2ccccn12)P(=O)(O)O (racemic) [(2-HYDROXY-3-IMIDAZO[1,2-A]PYRIDIN-3-YL-2-PHOSPHONOPROPIONIC ACID (ENANTIONMERS)]
IC50 [1]: 12.5 µM
LED (Rattus norvegicus): 2.8 mg/kg
IC50 (Osteoclast): 330 µM
IC50 (J774 [2]; j774): 47 µM
IC50 [3]: > 10 µM

Structure (SMILES): O=P(O)(O)C(O)(Cc1cnc2ccccn12)P(=O)(O)O [MINODRONIC ACID]
LED (J774 [4]): 3 µM
IC50 [1]: > 1000 µM
LED (J774 [5]): 3 µM
IC50 (J774 [2]; Mus musculus, J774, 48 h): 3 µM

Structure (SMILES): O=P(O)(O)C(O)(Cc1cccnc1)P(=O)(O)O
LED (J774 [4]): 12 µM
LED (J774 [5]): 12 µM

Structure (SMILES): O=C(O)C(O)(Cc1cccnc1)P(=O)(O)O (single isomer, unassigned; enantiomer 1) [listing 1 of 2 here]
IC50 [1]: 39 µM

Structure (SMILES): O=C(O)C(O)(Cc1cccnc1)P(=O)(O)O (single isomer, unassigned; enantiomer 1) [listing 2 of 2 here]
LED (J774 [5]): 63 µM

Structure (SMILES): O=C(O)C(O)(Cc1cccnc1)P(=O)(O)O (racemic) [listing 1 of 2 here]
Ki [6]: 33.6 µM
IC50 [7]: 32 µM
IC50 [1]: 51.7 µM
LED (Rattus norvegicus): 12 mg/kg
IC50 [8]: > 2000 µM
IC50 (Osteoclast): 970 µM
IC50 (J774 [2]; Mus musculus, J774, 48 h): 2800 µM
IC50 [3]: > 1000 µM

Structure (SMILES): O=C(O)C(O)(Cc1cccnc1)P(=O)(O)O (single isomer, unassigned; enantiomer 2) [listing 1 of 2 here]
LED (J774 [5]): 250 µM

Structure (SMILES): O=C(O)C(O)(Cc1cccnc1)P(=O)(O)O (single isomer, unassigned; enantiomer 2) [listing 2 of 2 here]
IC50 [1]: 150 µM

Structure (SMILES): O=C(O)C(O)(Cc1cccnc1)P(=O)(O)O (racemic) [listing 2 of 2 here]
Activity [11]: inactive
Activity [12]: 200 µM
LED (J774 [5]): 100 µM

Continued, in another order:

IC50 [1]: 67.7 µM
Structure (SMILES): O=C(O)C(O)(Cc1cnc2ccccn12)P(=O)(O)O (single isomer, unassigned; enantiomer 2) [(2-HYDROXY-3-IMIDAZO[1,2-A]PYRIDIN-3-YL-2-PHOSPHONOPROPIONIC ACID (ENANTIONMERS)]
IC50 (J774 [2]; j774): > 800 µM

Activity [9]: inactive
Activity [10]: inactive
Structure (SMILES): O=C(O)C(O)(Cc1cnc2ccccn12)P(=O)(O)O (single isomer, unassigned; (+))
LED (J774 [4]): 100 µM
LED (J774 [5]): 3 µM

Activity [9]: inactive
Activity [10]: inactive
Structure (SMILES): O=C(O)C(O)(Cc1cnc2ccccn12)P(=O)(O)O (single isomer, unassigned; enantiomer 2)
LED (J774 [4]): 4000 µM
LED (J774 [5]): 50 µM

Activity [11]: inactive
Activity [12]: 12.5 µM
Structure (SMILES): O=C(O)C(O)(Cc1cnc2ccccn12)P(=O)(O)O (racemic)
LED (J774 [4]): > 100 µM
LED (J774 [5]): 3 µM

Ki [6]: 0.211 µM
IC50 [7]: 1.3 µM
IC50 [1]: 1.1 µM
IC50 [8]: > 800 µM
Structure (SMILES): O=C(O)C(O)(Cc1cnc2ccccn12)P(=O)(O)O (single isomer, unassigned; (+)) [(2-HYDROXY-3-IMIDAZO[1,2-A]PYRIDIN-3-YL-2-PHOSPHONOPROPIONIC ACID (ENANTIONMERS)]
IC50 (J774 [2]; j774): 31 µM
